Results published in patent US20090137565A1, “Method for treatment of movement disorders” (The Trustees of Columbia University in the City of New York, priority 2004, published 2009).

Assays:
[1] = test system: ethanol-responsive myoclonus (PHM, MD); test: Five-patient open-label trial of sodium oxybate, blinded UMRS (patients #1-3); assay type: in vivo, human; conditions: for UMRS section 2 (myoclonus at rest) score: range 0-128; for UMRS section 1 (patient questionnaire) score: range 0-44; for UMRS section 6 (global disability score): range 0-4; for UMRS section 3 (stimulus sensitivity) score: range 0-17; for UMRS section 5 (functional tests) score: range 0-20, 0 gm score 20; for UMRS section 4 (myoclonus with action) score: range 0-160; for UMRS section 5 (functional tests, modified) score: range 0-28
Source text: Five patients were enrolled in a trial from the Movement Disorders Division of Columbia University Medical Center during the fall of 2004. All patients were afflicted with hyperkinetic movement disorders that responded to ethanol (defined as a noticeable change to the patient), and all were refractory to treatment with conventional medications or could not tolerate them. The Medical Center's Institutional Review Board approved the trial, and written and verbal informed consent were obtained from all patients prior to enrollment.
The dose and timing of all other drugs were kept constant throughout the trial, and patients were not withdrawn from other medications. Patients #1-3 were examined and videotaped using the Unified Myoclonus Rating Scale (UMRS), and patients #4 and 5 were examined and videotaped using the Washington Heights Inwood Tremor Rating Scale (WHIGET) (see Appendix I). Frucht S. J., et al. Adv Neurol 89:361-76 (2002); Louis, E. D., et al. Mov Disord 16:89-93 (2001).
Side effects were defined as either minor or serious (leading to hospitalization) using good clinical practice standards (www.who.int/medicines/library/par/ggcp/GCPGuidePharmatrials), and patients were asked to report side effects at each visit. After initial examination and videotaping, patients were given 1 gm of sodium oxybate by mouth (2 ml of the standard 0.5 gm/ml solution dissolved in 60 ml of water). One hour later, the senior author repeated the examination and videotaping. […] After two weeks taking 2 gm twice daily, the procedure was repeated after a 3 gm office dose, and finally two weeks after receiving 3 gm twice daily, the procedure was repeated after a 4 gm office dose. The maximum dose allowed in the trial was 4 gm twice daily. Patients and the senior author determined at each visit whether or not to proceed to the next dose level, based principally on their ability to tolerate the most recent dose regimen. After deciding on a maximum tolerated dose, patients received a dose in the office 0.5 gm less and the examination was videotaped.
The entire videotape segments and patient-writing samples from each visit were copied, and were blinded to trial order and identifying features, and were randomly ordered for review using a random number table. A movement disorder expert blinded to trial design and dose schedule, scored each videotape. Sub-scores for each visit were calculated as described previously. Frucht S. J., et al. Adv Neurol 89:361-76 (2002). We modified section 5 of the UMRS in which functional performance (pouring water, using a soup spoon) is performed only with the dominant arm (section V). […] This increased the maximum score of section 5 of the UMRS from 20 to 28.

[2] = test system: medication-refractory hyperkinetic movements; test: Twenty-patient trial: clinical course (onset, wear-off, continuation); assay type: in vivo, human; conditions: noted by most patients at higher doses
Source text: Twelve men and 8 women enrolled. Results from patients #6, and #s 1, 2, 7, 12, and 13 were reported previously. Frucht, S. J., et al. Mov Disord 20:745-51 (2005); Frucht, S. J., et al. Mov Disord 20:1330-7 (2005). Mean age/symptom duration was 43.9 yrs/12.3 yrs (myoclonus) and 71.2 yrs/26.7 yrs (ET). Patients with myoclonus were examined and videotaped at each visit using the Unified Myoclonus Rating Scale (UMRS), and patients with ET were examined and videotaped using the modified Washington Heights Inwood Genetic Essential Tremor Rating Scale (WHIGET; Appendix 1). Frucht, S. J., et al. Mov Disord 20:1330-7 (2005). After initial baseline examination and videotaping, patients took 1 gm of sodium oxybate by mouth (2 ml of the standard 0.5 gm/ml solution dissolved in 60 ml of water), and one hour later the videotaped examination was repeated. Patients were maintained on a dose of 1 gm T.I.D. (taken before meals) until their next office visit two weeks later, when the examination and videotaping were repeated one hour after receiving 1.5 gm of sodium oxybate. Subsequent visits and dose titrations at two-week intervals were repeated until the maximum dose was reached (3 gm T.I.D), patients were satisfied with the results of treatment, or until they developed side effects that they viewed as troublesome. […]

[3] = test system: alcohol-responsive myoclonus with dystonia; conditions: single patient, recently reported; cited from earlier work
[4] = patient 1, listed as sodium oxybate, monosodium salt
[5] = patient 2, 2.5 gm, 0 gm score 4

O=C([O-])CCCO.[Na+] [GHB, 4-hydroxybutanoic acid monosodium salt]
UMRS section 2 (myoclonus at rest) score ([1]; patient 1 1 gm, 0 gm score 3): 3
UMRS section 1 (patient questionnaire) score ([1]; patient 1 3 gm, 0 gm score 33): 31
UMRS section 6 (global disability score) ([1]; patient 1, 1 gm, 0 gm score 4): 3
UMRS section 3 (stimulus sensitivity) score ([1]; patient 1, 1 gm, 0 gm score 8): 3
UMRS section 5 (functional tests) score ([1]; patient 1, 1 gm): 20
UMRS section 4 (myoclonus with action) score ([1]; patient 1, 1 gm, 0 gm score 108): 96
UMRS section 6 (global disability score) ([1]; patient 1, 2 gm, 0 gm score 4): 3
UMRS section 3 (stimulus sensitivity) score ([1]; patient 1, 2 gm, 0 gm score 8): 1
UMRS section 5 (functional tests) score ([1]; patient 1, 2 gm): 13
UMRS section 2 (myoclonus at rest) score ([1]; patient 1, 2 gm, 0 gm score 3): 0
UMRS section 4 (myoclonus with action) score ([1]; patient 1, 2 gm, 0 gm score 108): 64
UMRS section 6 (global disability score) ([1]; patient 1, 2.5 gm, 0 gm score 4): 2
UMRS section 3 (stimulus sensitivity) score ([1]; patient 1, 2.5 gm, 0 gm score 8): 2
UMRS section 5 (functional tests) score ([1]; patient 1, 2.5 gm): 12
UMRS section 2 (myoclonus at rest) score ([1]; patient 1, 2.5 gm, 0 gm score 3): 0
UMRS section 4 (myoclonus with action) score ([1]; patient 1, 2.5 gm, 0 gm score 108): 54
UMRS section 2 (myoclonus at rest) score ([1]; patient 1, 3 gm (asthma exacerbation visit), 0 gm score 3): 3
UMRS section 6 (global disability score) ([1]; patient 1, 3 gm, 0 gm score 4): 3
UMRS section 3 (stimulus sensitivity) score ([1]; patient 1, 3 gm, 0 gm score 8): 3
UMRS section 5 (functional tests) score ([1]; patient 1, 3 gm): 15
UMRS section 4 (myoclonus with action) score ([1]; patient 1, 3 gm, 0 gm score 108): 86
Rx effect, UMRS section 4 (action myoclonus improved by) [1, 4]: 50%
Rx effect, UMRS section 5 (functional performance improved by) [1, 4]: 40%
Rx effect, UMRS section 4 ([1]; patient 2 (table b)): 88%
UMRS section 6 (global disability score) ([1]; patient 2, 1 gm, 0 gm score 1): 1
UMRS section 3 (stimulus sensitivity) score ([1]; patient 2, 1 gm, 0 gm score 4): 2
UMRS section 5 (functional tests, modified) score ([1]; patient 2, 1 gm, 0 gm score 10): 8
UMRS section 2 (myoclonus at rest) score ([1]; patient 2, 1 gm, 0 gm score 4): 2
UMRS section 4 (myoclonus with action) score ([1]; patient 2, 1 gm, 0 gm score 25): 29
UMRS section 6 (global disability score) ([1]; patient 2, 2 gm, 0 gm score 1): 1
UMRS section 3 (stimulus sensitivity) score ([1]; patient 2, 2 gm, 0 gm score 4): 2
UMRS section 5 (functional tests, modified) score ([1]; patient 2, 2 gm, 0 gm score 10): 4
UMRS section 2 (myoclonus at rest) score ([1]; patient 2, 2 gm, 0 gm score 4): 3
UMRS section 4 (myoclonus with action) score ([1]; patient 2, 2 gm, 0 gm score 25): 9
UMRS section 6 (global disability score) ([1]; patient 2, 2.5 gm, 0 gm score 1): 1
UMRS section 3 (stimulus sensitivity) score [1, 5]: 0
UMRS section 5 (functional tests, modified) score ([1]; patient 2, 2.5 gm, 0 gm score 10): 4
UMRS section 2 (myoclonus at rest) score [1, 5]: 0
UMRS section 4 (myoclonus with action) score ([1]; patient 2, 2.5 gm, 0 gm score 25): 3
UMRS section 6 (global disability score) ([1]; patient 2, 3 gm, 0 gm score 1): 1
UMRS section 3 (stimulus sensitivity) score ([1]; patient 2, 3 gm, 0 gm score 4): 0
UMRS section 5 (functional tests, modified) score ([1]; patient 2, 3 gm, 0 gm score 10): 5
UMRS section 2 (myoclonus at rest) score ([1]; patient 2, 3 gm, 0 gm score 4): 0
UMRS section 4 (myoclonus with action) score ([1]; patient 2, 3 gm, 0 gm score 25): 11
Rx effect, UMRS section 5 (functional performance improved by) ([1]; patient 2, listed as sodium oxybate, monosodium salt): 60%
Rx effect, UMRS section 4 ([1]; patient 3 (table c)): 57%
UMRS section 6 (global disability score) ([1]; patient 3, 1 gm, 0 gm score 1): 1
UMRS section 3 (stimulus sensitivity) score ([1]; patient 3, 1 gm, 0 gm score 6): 2
UMRS section 5 (functional tests, modified) score ([1]; patient 3, 1 gm, 0 gm score 12): 13
UMRS section 2 (myoclonus at rest) score ([1]; patient 3, 1 gm, 0 gm score 15): 13
UMRS section 4 (myoclonus with action) score ([1]; patient 3, 1 gm, 0 gm score 35): 25
UMRS section 6 (global disability score) ([1]; patient 3, 2 gm, 0 gm score 1): 1
UMRS section 3 (stimulus sensitivity) score ([1]; patient 3, 2 gm, 0 gm score 6): 3
UMRS section 5 (functional tests, modified) score ([1]; patient 3, 2 gm, 0 gm score 12): 9
UMRS section 2 (myoclonus at rest) score ([1]; patient 3, 2 gm, 0 gm score 15): 15
UMRS section 4 (myoclonus with action) score ([1]; patient 3, 2 gm, 0 gm score 35): 26
UMRS section 6 (global disability score) ([1]; patient 3, 4 gm, 0 gm score 1): 1
UMRS section 3 (stimulus sensitivity) score ([1]; patient 3, 4 gm, 0 gm score 6): 1
UMRS section 5 (functional tests, modified) score ([1]; patient 3, 4 gm, 0 gm score 12): 12
UMRS section 1 (patient questionnaire) score ([1]; patient 3, 4 gm, 0 gm score 10): 5
UMRS section 2 (myoclonus at rest) score ([1]; patient 3, 4 gm, 0 gm score 15): 10
UMRS section 4 (myoclonus with action) score ([1]; patient 3, 4 gm, 0 gm score 35): 15
Rx effect, UMRS section 5 (functional performance improved by) ([1]; patient 3, listed as sodium oxybate, monosodium salt): 25%
Patient self-assessment scores ([1]; patient #1): unchanged
writing and control of spoon ([1]; patient #1, one hour after 2.5 gm): able to write (although slowly) and their control of the spoon was improved
myoclonic jerks on writing, pouring, using a spoon ([1]; patient #2, after 3 gm): the amplitude and frequency of the jerks was diminished
walking ([1]; patient #3, after 4 gm): modestly improved
Patient self-assessment scores ([1]; patients #2 and 3): improved
Physician global assessment scores (UMRS part 6) ([1]; patients #2 and 3, mild (1 out of 4) throughout): remained unchanged
Action myoclonus (section 4) improved by ([1]; second of patients #1-3 'respectively' in the text (patient #2)): 57%
Action myoclonus (section 4) improved by ([1]; third of patients #1-3 'respectively' in the text (patient #3)): 88%
wear-off of benefit [2]: four to five hours
effect on myoclonus [3]: improved myoclonus
